Experimental data reported in patent US9913812B2, “Methods for the treatment of skin neoplasms” (TEIKOKU PHARMA USA, INC., priority 2011, dated 2018).
“Also recorded” adds a separate entry of the source. Where two headings read alike, the source gives them in different places.

Columns and labels:
[1] = Body weights of tumor-bearing mice during treatment; assay type: in vivo; conditions: for Difference in body weight (BW), Vehicle vs. Rasagiline PO / Difference in percent change in body weight (% BW), Vehicle vs. Rasagiline PO: 15 mg/kg PO daily
Description: Body weights were measured prior to dosing and every three days concurrent with tumor measurements for both patch removal/application and oral dosing. Body weights were transformed into percent change in body weight using the formula: […] […] Cisplatin was administered once-weekly via intraperitoneal injection.

[2] = Survival / mortality of tumor-bearing mice during treatment; assay type: in vivo
Description: The percentage of animal mortality and time of death was recorded for every group in the study. Animals were defined as moribund and euthanized if one or more of the following criteria were met: prolonged or excessive pain or distress as defined by clinical observations such as: prostration, hunched posture, paralysis/paresis, distended abdomen, ulcerations, abscesses, seizures and/or hemorrhages; loss of more than 20% of their body weight; if the tumor volumes exceeded 2,000 mm^3 or the tumors ulcerated, bled or produced exudates.
Survival of the animals was recorded for the entire experiment. If an animal died or was euthanized due to morbidity during the experiment, its day of death was designated as “1”. If an animal survived the entire time course of the experiment, the last day of observation was designated as a “0”. Survival data was analyzed using a Kaplan-Meier Survival analysis and survival curves were compared using a Log-rank test. P values less than 0.05 were considered significant.

[3] = system: SKMEL28 human melanoma cell line; test: SKMEL28 melanoma xenograft tumor volume / growth in athymic mice; conditions: for tumor growth rates (in words) / tumor volume / tumor growth on the last day of the experiment (in words): compared to the no treatment group
Description: The SKMEL28 human melanoma cell line was obtained from ATCC and grown according to the vendor's instructions until a log growth phase was obtained. The cells were harvested from the culture vessel, washed once and re-suspended in serum free medium and matrigel mixed at a 1:1 ratio.
Female athymic (nu/nu) mice were used for in vivo animal studies. The mice were 7-8 weeks old at the time of tumor implantation. Six groups of mice were included in the study, with 10 animals in each group.
Mice were inoculated subcutaneously in the scapular area in a volume of 0.2 mL containing ˜10×10^6 SKMEL28 cells.
Tumor dimensions were measured twice a week with digital calipers and tumor volumes were calculated from the dimensions with the formula: Tumor Volume (m)=(a^2×b/2); where “a” was the smallest dimension and “b” was the largest dimension. […] Test article treatment was initiated on the same day as assignment to treatment groups. Tumor dimensions were measured and tumor volumes calculated every three days (at the same time as patch removal and application) for 21 days. Tumor volumes were also transformed into percent change in tumor volume using the formula: Percent Change TV=(TVi−TVo)/TVo×100%; where TV was tumor volume, TVi was the tumor volume at the measurement time and TVo was the initial tumor volume. Differences between treatment groups for both the raw tumor volumes and percent changes in tumor volume versus time data sets were evaluated with Two-way ANOVAs. Pair-wise differences between the no treatment and test article treatment groups on each measurement day were evaluated with post hoc Bonferroni's T-tests. In order to evaluate the growth rates of the tumors between treatments, straight lines were fitted through the different data sets (percent change in tumor volumes versus time) by least squares regression. Slopes of the lines were compared initially between all groups and then in a pair-wise fashion between the “no treatment” and “test article” treated groups using an F-test. In all cases, P values less than 0.05 were considered significant.
Test article administrations were initiated on the same day as treatment group assignments and according to the Experimental Grouping Table. Rasagiline administration consisted of either oral gavage (15 mg/kg PO, daily for 21 days) or topical transdermal patch treatment. Cisplatin was administered once-weekly via intraperitoneal injection. Transdermal patches were applied to the intrascapular (i.e., directly over the tumor) and chest areas and maintained in position with a single BandAid™. Fresh patches were applied to the same locations every third day. The skin was cleaned prior to the first patch application with clorehexadene and as necessary prior to repeat applications. […] Mice were conscious and lightly restrained for patch removal and application. The patches were 0.75 or 1.2 in^2.

in vivo = conditions: athymic nude, mouse, po, 15 mg/kg
Description: At the end of the 21-day treatment duration, 2 animals from each group were euthanized at each of the following time points by isoflurane inhalation (0.5, 1, 2, 4, 8, and 24 hours after the last administration of the test articles including the application of fresh transdermal patches). For the 15 mg/kg PO Rasagiline group, two mice were bled twice (cheek bleed and terminal cardiac) so that ten mice could supply blood samples for six time points. Blood samples were collected from these animals via cardiac puncture into blood collection tubes containing lithium heparin. The blood samples were processed within 30 minutes of collection by centrifugation to prepare plasma samples. The plasma was separated from the cellular fraction and frozen on dry ice. Plasma samples were stored at −80° C. until they were shipped to an analytical laboratory designated by the Sponsor.
To compare rasagiline exposure by both dosing routes, blood was collected from two animals at each time point by sparse sampling techniques via cardiocentesis prior to euthanasia. Two samples were collected each from two animals in the oral dose group by collecting the first sample from the submandibular vein at 0.25 hours and cardiocentesis at eight hours. Blood was collected from animals administered oral rasagiline at 0.25, 0.5, 1, 2, 4 and 8 hours after the last oral dose. Animals administered the transdermal patches had blood collected at 0.5, 1, 2, 4, and 24 hours on the last application day. Blood collected from animals in the naïve, vehicle, and placebo patch groups determined baseline values and were used for pre-dose levels. […] Mean values for each time point within the rasagiline groups were used to calculate the mean AUC(0-t) value. The AUC(0-8) derived for the oral rasagiline group was multiplied by three to estimate the AUC(0-24) exposure. The ratio of AUC(0-24) for each of the baseline transdermal groups was divided by the estimated oral AUC(0-24) to compare exposures between the two dosing routes.

[4] = oral administration (0.45 mg/kg), cited from earlier work
[5] = oral gavage 15 mg/kg, listed as rasagiline mesylate, 15 mg/kg
[6] = oral gavage 15 mg/kg, listed as rasagiline, 15 mg/kg

SMILES: N.N.[Cl][Pt][Cl] [Cisplatin]
- body weight loss (in words) ([1]; 10 mg/kg IP, versus any other treatment group): greater body weight loss
- survival versus No Treatment group (Logrank test; in words) ([2]; 10 mg/kg IP every 7 days): Yes
- animals that died ([2]; 10 mg/kg IP every 7 days, group of 10, deaths on Days 13-17): 7 out of the 10
- SLOPE, best-fit value of linear fit to percent changes in tumor volume versus time ([3]; 10 mg/kg IP every 7 days): 13.16
- tumor growth rates (in words) ([3]; 10 mg/kg IP): significantly slowed; also recorded: significantly reduced tumor growth rates
- reduction in the percent change in tumor volumes ([3]; 10 mg/kg IP, compared to the oral vehicle treatment, prior to death of the majority of the animals): 49%

SMILES: C#CCNC1CCc2ccccc21 (stereo not shown) [Rasagiline, N-propargyl-1-aminoindan]
- Difference in body weight (BW), Vehicle vs. Rasagiline PO ([1]; Day 1): 0.4100
- Difference in percent change in body weight (% BW), Vehicle vs. Rasagiline PO ([1]; Day 1): 0.0000%
- Difference in body weight (BW), Vehicle vs. Rasagiline PO ([1]; Day 4): −0.1100
- Difference in percent change in body weight (% BW), Vehicle vs. Rasagiline PO ([1]; Day 4): −2.229%
- Difference in body weight (BW), Vehicle vs. Rasagiline PO ([1]; Day 7): 0.2200
- Difference in percent change in body weight (% BW), Vehicle vs. Rasagiline PO ([1]; Day 7): −0.7052%
- Difference in body weight (BW), Vehicle vs. Rasagiline PO ([1]; Day 10): 0.3400
- Difference in percent change in body weight (% BW), Vehicle vs. Rasagiline PO ([1]; Day 10): −0.2490%
- Difference in body weight (BW), Vehicle vs. Rasagiline PO ([1]; Day 13): 0.1700
- Difference in percent change in body weight (% BW), Vehicle vs. Rasagiline PO ([1]; Day 13): −1.053%
- Difference in body weight (BW), Vehicle vs. Rasagiline PO ([1]; Day 16): 0.2800
- Difference in percent change in body weight (% BW), Vehicle vs. Rasagiline PO ([1]; Day 16): −0.4240%
- Difference in body weight (BW), Vehicle vs. Rasagiline PO ([1]; Day 22): −0.5500
- Difference in percent change in body weight (% BW), Vehicle vs. Rasagiline PO ([1]; Day 22): −4.072%
- percent change in body weight (in words) ([1]; oral 15 mg/kg daily, compared with the no treatment group, 15 mg/kg): steadily reduced body weight from day 13 onwards
- survival (in words) ([2]; orally or transdermally, 21 days): survived to the end of the study; also recorded: survived the dosing period
- Cmax (in vivo): 899 ng/mL
- Tmax (in vivo): 15 min
- concentration at 0.25 h (in vivo): 899 ng/mL
- concentration at 0.5 h (in vivo): 370 ng/mL
- concentration at 1 h (in vivo): 216 ng/mL
- concentration at 2 h (in vivo): 82.5 ng/mL
- concentration at 4 h (in vivo): 28.4 ng/mL
- concentration at 8 h (in vivo): 19.9 ng/mL
- time of mean maximal plasma concentration (in vivo): 15 min
- AUC(0-t) (in vivo; Mean AUC(0-24)): 774 ng·h/mL
- AUC(0-t) (in vivo; estimated exposure after 24 hours (AUC(0-8) multiplied by three)): 2320 ng·h/mL
- Maximum % of dose ([4]; Fat): 8.47 % of dose
- Time to maximal exposure ([4]; Fat): 0.25
- Maximum % of dose ([4]; Kidneys): 3.89 % of dose
- Time to maximal exposure ([4]; Kidneys): 0.25
- Maximum % of dose ([4]; Large intestine): 1.83 % of dose
- Time to maximal exposure ([4]; Large intestine): 1
- Maximum % of dose ([4]; Liver): 13.20 % of dose
- Time to maximal exposure ([4]; Liver): 0.25
- Maximum % of dose ([4]; Lung): 1.46 % of dose
- Time to maximal exposure ([4]; Lung): 0.25
- Maximum % of dose ([4]; Muscle): 24.11 % of dose
- Time to maximal exposure ([4]; Muscle): 0.25
- Maximum % of dose ([4]; Skin): 13.20 % of dose
- Time to maximal exposure ([4]; Skin): 0.25
- Maximum % of dose ([4]; Small intestine): 8.76 % of dose
- Time to maximal exposure ([4]; Small intestine): 0.25
- Maximum % of dose ([4]; Stomach): 4.73 % of dose
- Time to maximal exposure ([4]; Stomach): 0.5
- Maximum % of dose ([4]; Whole Blood): 4.54 % of dose
- Time to maximal exposure ([4]; Whole Blood): 0.25
- SLOPE, best-fit value of linear fit to percent changes in tumor volume versus time ([3]; 15 mg/kg PO daily, 21 days): 26.64
- Difference in percent change in tumor volume (% TV), Vehicle vs. Rasagiline 15 mg/kg PO ([3]; Day 1, 15 mg/kg PO daily): 0.0000%
- Difference in tumor volume (TV), Vehicle vs. Rasagiline (15 mg/kg PO) ([3]; Day 1, 15 mg/kg PO daily): −0.2606
- Difference in percent change in tumor volume (% TV), Vehicle vs. Rasagiline 15 mg/kg PO ([3]; Day 4, 15 mg/kg PO daily): −12.56%
- Difference in tumor volume (TV), Vehicle vs. Rasagiline (15 mg/kg PO) ([3]; Day 4, 15 mg/kg PO daily): −15.03
- Difference in percent change in tumor volume (% TV), Vehicle vs. Rasagiline 15 mg/kg PO ([3]; Day 7, 15 mg/kg PO daily): −36.19%
- Difference in tumor volume (TV), Vehicle vs. Rasagiline (15 mg/kg PO) ([3]; Day 7, 15 mg/kg PO daily): −40.95
- Difference in percent change in tumor volume (% TV), Vehicle vs. Rasagiline 15 mg/kg PO ([3]; Day 10, 15 mg/kg PO daily): −42.92%
- Difference in tumor volume (TV), Vehicle vs. Rasagiline (15 mg/kg PO) ([3]; Day 10, 15 mg/kg PO daily): −50.83
- Difference in percent change in tumor volume (% TV), Vehicle vs. Rasagiline 15 mg/kg PO ([3]; Day 13, 15 mg/kg PO daily): −71.82%
- Difference in tumor volume (TV), Vehicle vs. Rasagiline (15 mg/kg PO) ([3]; Day 13, 15 mg/kg PO daily): −92.36
- Difference in percent change in tumor volume (% TV), Vehicle vs. Rasagiline 15 mg/kg PO ([3]; Day 16, 15 mg/kg PO daily): −98.35%
- Difference in tumor volume (TV), Vehicle vs. Rasagiline (15 mg/kg PO) ([3]; Day 16, 15 mg/kg PO daily): −128.8
- Difference in percent change in tumor volume (% TV), Vehicle vs. Rasagiline 15 mg/kg PO ([3]; Day 22, 15 mg/kg PO daily): −153.3%
- Difference in tumor volume (TV), Vehicle vs. Rasagiline (15 mg/kg PO) ([3]; Day 22, 15 mg/kg PO daily): −154.4
- tumor volume / tumor growth on the last day of the experiment (in words) ([3]; oral gavage 15 mg/kg, 15 mg/kg): significantly reduced tumor volume
- tumor growth rates (in words) [3, 5]: significantly reduced absolute tumor volumes as well as tumor growth rates
- tumor volume / tumor growth on the last day of the experiment (in words) [3, 5]: significantly reduced absolute tumor volumes
- tumor growth rates (in words) [3, 6]: significantly slowed; also recorded: significantly reduced tumor growth rates
- tumor volume / tumor growth on the last day of the experiment (in words) [3, 6]: significant reductions in tumor growth
- reduction in percent change in tumor volume ([3]; oral gavage 15 mg/kg, compared to the oral vehicle control): 22%
- tumor growth rates (in words) ([3]; transdermal patch): significantly reduced absolute tumor volumes as well as tumor growth rates
- tumor volume / tumor growth on the last day of the experiment (in words) ([3]; transdermal patch): significantly reduced absolute tumor volumes
